Assays:
androgen receptor (AR) = molecular target: T1, androgen receptor (AR) (Homo sapiens, UniProt P10275); test: Specificity Western blot in T47D cell lysates, AR; type: cell-based; conditions: 5 or 10 micromolar, presence or absence of estrodial (E2)
T1 construct: Incubating T47D cells with ASC-J9 (5 or 10 micromolar) in the presence or absence of estrodial (E2) decreased the cellular concentrations of AR; endogenous in cells; host or cells: T47D
T1 sequence (P10275 1-920): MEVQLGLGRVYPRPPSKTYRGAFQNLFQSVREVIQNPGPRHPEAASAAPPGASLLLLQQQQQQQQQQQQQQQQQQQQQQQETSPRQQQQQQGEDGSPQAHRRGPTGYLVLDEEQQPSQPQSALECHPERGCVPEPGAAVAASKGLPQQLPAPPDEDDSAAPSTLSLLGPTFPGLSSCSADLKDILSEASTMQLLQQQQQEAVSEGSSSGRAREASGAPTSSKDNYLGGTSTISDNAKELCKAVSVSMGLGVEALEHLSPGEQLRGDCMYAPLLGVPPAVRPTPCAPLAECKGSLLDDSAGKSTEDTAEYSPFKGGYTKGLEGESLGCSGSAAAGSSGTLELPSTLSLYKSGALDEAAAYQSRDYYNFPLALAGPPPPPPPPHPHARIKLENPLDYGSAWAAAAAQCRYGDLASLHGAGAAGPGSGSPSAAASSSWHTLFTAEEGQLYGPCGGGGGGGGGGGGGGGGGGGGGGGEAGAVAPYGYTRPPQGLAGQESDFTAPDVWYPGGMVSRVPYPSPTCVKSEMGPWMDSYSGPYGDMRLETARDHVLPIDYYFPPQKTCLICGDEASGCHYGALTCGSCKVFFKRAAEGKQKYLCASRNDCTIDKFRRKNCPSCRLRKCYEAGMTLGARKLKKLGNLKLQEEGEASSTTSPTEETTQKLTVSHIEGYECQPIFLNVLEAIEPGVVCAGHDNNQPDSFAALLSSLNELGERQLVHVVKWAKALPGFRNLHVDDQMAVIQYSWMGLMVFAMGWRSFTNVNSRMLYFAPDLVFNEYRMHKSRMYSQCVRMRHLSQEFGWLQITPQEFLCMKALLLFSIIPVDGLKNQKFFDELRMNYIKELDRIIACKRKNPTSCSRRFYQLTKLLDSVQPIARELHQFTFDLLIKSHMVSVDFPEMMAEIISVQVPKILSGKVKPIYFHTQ
Method: (§1) Human prostate cancer LNCaP cells and T47D cells were plated at a density of 7×10^5 cells per 60 millimeter tissue culture dish in […] medium containing 10% FBS. The medium was changed to RPMI or DME medium containing 10% charcoal-stripped serum 24 hours later to deplete cellular androgens or estrogens. After another 24 hours, treatment with the test compounds began. The test dose of ASC-J9 was 1, and 5 and micromolar. LNCap cells also received dihydrotestosterone (DHT) (3 nanomolar). Control cells received a corresponding amount of the vehicle, dimethylsulfoxide (DMSO) (<0.04%) for an equivalent exposure time. Cells were incubated with ASC-J9 for 24 hours, and were lysed in 250 microliters of 1×SDS/PAGE loading buffer. Approximately 40 micrograms of total cellular protein was loaded in each lane of a pre-cast gel (NuPAGE, Invitrogen). Protein separation and transfer were performed following the manufacturer's instructions.

[1] = test system: PPARγ, PPARβ, RXRα, ERα and Erβ, ERK, HSP70 and actin; test: Specificity Western blot in T47D cell lysates, other receptor proteins; type: cell-based, human; conditions: T47D cell lysates (FIG. 6)
Method: as §1

[2] = test system: testosterone-induced hair growth suppression; test: Testosterone-induced alopecia model, hair re-growth; type: in vivo, C57BL/6J mice; conditions: testosterone mornings
Method: C57BL/6J mice were used in this animal model for hair loss and regrowth (Uno et al. (1990) J. Cutaneous Aging & Cosm. Derm., 1:193, which is incorporated by reference in its entirety herein). Six-week-old male mice (6 to 7 animals per group) were shaved with an electric clipper, and then treated with a hair-removal cream for 1 to 2 minutes. […] One day after hair removal, a first group of animals each received 100 microliters of a 1% testosterone solution in ethanol, applied topically to the shaved area, once each morning for twenty consecutive days. A second group of animals each received 100 microliters of vehicle (ethanol) alone, applied topically to the shaved area, once each morning for twenty consecutive days. The first group of mice (testosterone-treated) were divided further into a control group and a treatment group. Also beginning one day after hair removal, each mouse in the control group received 100 microliters of a control solution (60% ethanol, 20% propylene glycol, and 20% water) and each mouse in the treatment group received 100 microliters of the test compound, ASC-J9 (0.02% in the same 60% ethanol, 20% propylene glycol, and 20% water solution), applied topically to the shaved area, once each afternoon for twenty consecutive days. Hair re-growth in the shaved areas was observed and photographed at 0, 4, 8, 11 and 14 days after beginning of the topical treatments.

Which results are given for COc1ccc(C=CC(=O)C=C(O)C=Cc2ccc(OC)c(OC)c2)cc1OC [ASC-J9, 5-hydroxy-1,7-bis(3,4-dimethoxyphenyl)-1,4,6-heptatrien-3-one]?
cellular concentration of AR (androgen receptor (AR)): decreased; expression of other receptor proteins [1]: not affected; hair re-growth in shaved areas ([2]; 0.02% topical afternoons, day 8 to day 17): rapid re-growth of hair; hair re-growth in shaved areas ([2]; topical afternoons, after 20 days): fully re-growth of hair
